The record followed here is patent US11142515B2, “Pyrazolyl-ureas as kinase inhibitors” (RESPIVERT LIMITED, priority 2014, dated 2021).

One data set deals with T1, p38MAPKγ (MAPK12) (Homo sapiens, UniProt P53778).
T1 construct: purchased Life Technologies
T1 sequence (P53778 1-367): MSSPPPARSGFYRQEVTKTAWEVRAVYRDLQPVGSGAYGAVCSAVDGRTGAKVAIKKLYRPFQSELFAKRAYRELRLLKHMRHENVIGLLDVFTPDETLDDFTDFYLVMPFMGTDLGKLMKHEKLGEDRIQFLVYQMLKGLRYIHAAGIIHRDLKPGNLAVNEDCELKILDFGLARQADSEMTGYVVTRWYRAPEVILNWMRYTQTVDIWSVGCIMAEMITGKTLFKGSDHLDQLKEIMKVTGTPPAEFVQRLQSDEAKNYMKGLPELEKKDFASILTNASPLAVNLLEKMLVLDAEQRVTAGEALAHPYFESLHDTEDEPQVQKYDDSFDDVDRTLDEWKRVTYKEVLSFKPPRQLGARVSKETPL
In words: p38 MAPKγ enzyme inhibition (Z-LYTE FRET). Conditions: Table 2A; read-out: IC50 Values for Enzyme Inhibition p38 MAPKγ. Format: biochemical. In short, it runs like this:
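Enzyme (added at 800 ng/mL) was preincubated 2 h at RT with compound (solutions of 40 to 0.0012 μg/mL), then FRET peptide (8 μM) and ATP (400 μM), both as added, were reacted 1 h at RT. Protease development followed for 1 h; phosphorylation was read as the coumarin/fluorescein emission ratio.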

A further data set addresses T2, Hck (Homo sapiens, UniProt P08631).
T2 construct: purchased Life Technologies
In words: Hck enzyme inhibition (Z-LYTE FRET). Type of data set: biochemical. The conditions noted are these: Table 2A. The protocol: (§1) The enzyme inhibitory activities of compounds disclosed herein were determined by FRET using synthetic peptides labelled with both donor and acceptor fluorophores (Z-LYTE, Life Technologies, Paisley, UK).
(§2) The relevant enzyme (1000 ng/mL, 1400 ng/mL or 2000 ng/mL respectively, 2.5 μL) was incubated with the test compound (either 40 μg/mL, 12 μg/mL, 4 μg/mL, 1.2 μg/mL, 0.4 μg/mL, 0.12 μg/mL, 0.04 μg/mL, 0.012 μg/mL, 0.004 μg/mL or 0.0012 μg/mL, 2.5 μL each) for 2 h at RT. The FRET peptides (8 μM, 2.5 μL), and appropriate ATP solutions (2.5 μL, 800 μM for c-Src, and 60 μM ATP for HCK and Syk) were then added to the enzyme/compound mixtures and incubated for 1 h at RT. Development reagent (protease, 5 μL) was added for 1 h prior to detection in a fluorescence microplate reader (EnVision, Perkin Elmer).
(§3) In all cases, the site-specific protease cleaves non-phosphorylated peptide only and eliminates the FRET signal. Phosphorylation levels of each reaction were calculated using the ratio of coumarin emission (donor) over fluorescein emission (acceptor), for which low ratios indicate high phosphorylation and high ratios indicate low phosphorylation levels.

The next data set has as its target T3, c-Src (Homo sapiens, UniProt P12931).
T3 construct: purchased Life Technologies
In words: c-Src enzyme inhibition (Z-LYTE FRET). Type of data set: biochemical. The conditions noted are these: Table 2A. Here is the method: as §1, §2, §3

A further data set concerns the target T4, Syk (Homo sapiens, UniProt P43405).
T4 construct: purchased Life Technologies
In words: Syk enzyme inhibition (Z-LYTE FRET). Type of data set: biochemical. Conditions: for IC50: Table 2A. The protocol:
as §1, §2, §3

Data set [1] deals with ICAM-1 expression in BEAS2B cells. In words: Poly I:C-induced ICAM-1 expression in BEAS2B cells. Format: cell-based. The conditions noted are these: Homo sapiens, BEAS-2B, read-out: PolyIC/ICAM1 IC50 (BEAS2B). The protocol:
Poly I:C was used in these studies as a simple, RNA virus mimic. Poly I:C-Oligofectamine mixture (2% Oligofectamine±1 μg/mL Poly I:C, 25 μL; Life Technologies and Invivogen Ltd., San Diego, Calif., respectively) was transfected into BEAS2B cells (human bronchial epithelial cells, ATCC). Cells were pre-incubated with final concentrations of test compounds for 2 h and the level of ICAM-1 expression on the cell surface was determined by cell-based ELISA. At a time point 18 h after poly I:C transfection, cells were fixed with 4% formaldehyde in PBS (100 μL) and then endogenous peroxidase was quenched by the addition of washing buffer (100 μL, 0.05% Tween in PBS: PBS-Tween) containing 0.1% sodium azide and 1% hydrogen peroxide. Cells were washed with wash-buffer (3×200 μL). After blocking the wells with 5% milk in PBS-Tween (100 μL) for 1 h, the cells were incubated with anti-human ICAM-1 antibody (50 μL; Cell Signaling Technology, Danvers, Mass.) in 1% BSA PBS overnight at 4° C.
The cells were washed with PBS-Tween (3×200 μL) and incubated with the secondary antibody (100 μL; HRP-conjugated anti-rabbit IgG, Dako Ltd., Glostrup, Denmark). The cells were then incubated with of substrate (50 μL) for 2-20 min, followed by the addition of stop solution (50 μL, 1N H2SO4). The ICAM-1 signal was detected by reading the absorbance at 450 nm against a reference wavelength of 655 nm using a spectrophotometer. The cells ware then washed with PBS-Tween (3×200 μL) and total cell numbers in each well were determined by reading absorbance at 595 nm after Crystal Violet staining (50 μL of a 2% solution in PBS) and elution by 1% SDS solution (100 μL) in PBS. The measured OD 450-655 readings were corrected for cell number by dividing with the OD595 reading in each well. The inhibition of ICAM-1 expression was calculated at each concentration of test compound by comparison with vehicle control.

A further data set concerns d-U937 cells. In words: Cell viability: MTT assay in differentiated U937 cells. The conditions noted are these: 10 μg/mL. Format: cell-based, human. The protocol:
Differentiated U937 cells were pre-incubated with each test compound (final concentration 10 μg/mL in 200 μL media indicated below) under two protocols: the first for 4 h in 5% FCS RPMI1640 media and the second in 10% FCS RPMI1640 media for 24 h. The supernatant was replaced with new media (200 μL) and MTT stock solution (10 μL, 5 mg/mL) was added to each well. After incubation for 1 h the media were removed, DMSO (200 μL) was added to each well and the plates were shaken lightly for 1 h prior to reading the absorbance at 550 nm. The percentage loss of cell viability was calculated for each well relative to vehicle (0.5% DMSO) treatment. Consequently an apparent increase in cell viability for drug treatment relative to vehicle is tabulated as a negative percentage.

T2 sequence (P08631 22-526): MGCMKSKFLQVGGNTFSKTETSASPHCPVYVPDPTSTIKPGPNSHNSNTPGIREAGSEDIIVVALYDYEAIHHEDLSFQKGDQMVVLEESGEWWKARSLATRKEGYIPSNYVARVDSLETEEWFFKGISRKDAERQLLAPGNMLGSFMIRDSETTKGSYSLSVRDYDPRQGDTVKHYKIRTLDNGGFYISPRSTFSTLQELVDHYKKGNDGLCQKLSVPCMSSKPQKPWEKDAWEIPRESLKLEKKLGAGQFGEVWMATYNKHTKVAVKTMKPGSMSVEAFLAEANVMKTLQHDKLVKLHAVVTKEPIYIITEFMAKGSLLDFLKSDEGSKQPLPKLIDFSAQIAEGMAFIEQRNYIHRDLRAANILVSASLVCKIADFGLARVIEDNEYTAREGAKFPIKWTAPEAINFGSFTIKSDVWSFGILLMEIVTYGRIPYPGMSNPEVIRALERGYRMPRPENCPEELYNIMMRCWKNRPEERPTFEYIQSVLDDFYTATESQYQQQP
T3 sequence (P12931 whole entry): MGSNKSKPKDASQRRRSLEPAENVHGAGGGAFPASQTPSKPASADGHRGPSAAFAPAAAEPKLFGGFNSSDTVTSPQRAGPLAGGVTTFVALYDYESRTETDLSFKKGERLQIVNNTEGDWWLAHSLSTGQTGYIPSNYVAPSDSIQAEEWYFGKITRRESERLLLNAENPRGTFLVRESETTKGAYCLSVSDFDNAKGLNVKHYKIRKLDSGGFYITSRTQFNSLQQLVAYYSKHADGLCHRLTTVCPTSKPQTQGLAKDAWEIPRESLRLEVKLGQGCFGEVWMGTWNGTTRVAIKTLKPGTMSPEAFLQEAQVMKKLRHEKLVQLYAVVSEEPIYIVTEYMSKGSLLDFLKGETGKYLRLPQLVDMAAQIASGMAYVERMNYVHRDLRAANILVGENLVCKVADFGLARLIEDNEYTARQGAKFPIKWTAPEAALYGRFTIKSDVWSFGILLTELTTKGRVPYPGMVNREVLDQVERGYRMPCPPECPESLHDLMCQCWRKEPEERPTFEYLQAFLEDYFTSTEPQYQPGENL

As to `Cc1cc(-n2nc(C(C)(C)C)cc2NC(=O)Nc2ccc(OCc3ccnc(Nc4cnccn4)c3)c3ccccc23)cs1` (single isomer, unassigned) [Example 31], the IC50 was 0.112 µM at p38MAPKγ (MAPK12); 0.059 µM against Hck; 0.154 µM against c-Src; greater than 16.5 µM at Syk; 0.874 µM in data set [1]. Moreover, in the data set on d-U937 cells, the “MTT Assay Cell viability at time point indicated in d-U937 Cells, 4 h” value (from here on “MTT Assay Cell viability … in d-U937 Cells, 4 h”) was “− (−ve and +ve indicate the value is below and above, respectively, the no significant effect threshold defined as 30% inhibition at 10 μg/mL at the time point indicated)”. Moreover, in the data set on d-U937 cells, the “MTT Assay Cell viability at time point indicated in d-U937 Cells, 24 h” value (shortened to “MTT Assay Cell viability … 24 h”) is “− (−ve and +ve indicate the value is below and above, respectively, the no significant effect threshold defined as 30% inhibition at 10 μg/mL at the time point indicated)”.
Regarding `Cc1ccc(-n2nc(C(C)(C)C)cc2NC(=O)Nc2ccc(OCc3ccnc(Nc4cnccn4)c3)c3ccccc23)cc1` [Example 1, 1-(3-(tert-Butyl)-1-(p-tolyl)-1H-pyrazol-5-yl)-3-(4-((2-(pyrazin-2-ylamino)pyridin-4-yl)methoxy)naphthalen-1-yl)urea], the IC50 at p38MAPKγ (MAPK12) was 0.067 µM; at Hck, 0.029 µM; at c-Src, 0.098 µM; at Syk, greater than 16.7 µM; in data set [1] it was 0.0818 µM. Further, the “inhibitory activity against Syk (in words)” value against Syk is listed as “very much weaker than the Reference Compound”. Further, in the data set on d-U937 cells, the “MTT Assay Cell viability … in d-U937 Cells, 4 h” value was “− (−ve and +ve indicate the value is below and above, respectively, the no significant effect threshold defined as 30% inhibition at 10 μg/mL at the time point indicated)”. Also, in the data set on d-U937 cells, the “MTT Assay Cell viability … 24 h” value was “− (−ve and +ve indicate the value is below and above, respectively, the no significant effect threshold defined as 30% inhibition at 10 μg/mL at the time point indicated)”.
In the case of `COCCNC(=O)c1cnc(Nc2cc(COc3ccc(NC(=O)Nc4cc(C(C)(C)C)nn4-c4ccc(C)cc4)c4ccccc34)ccn2)cn1` [Example 3], the IC50 on p38MAPKγ (MAPK12) was 0.222 µM; on Hck, 0.066 µM; against c-Src it was 0.144 µM; against Syk it was greater than 14.3 µM; in data set [1], 0.46 µM. Also, in the data set with d-U937 cells, the “MTT Assay Cell viability … in d-U937 Cells, 4 h” value was “− (−ve and +ve indicate the value is below and above, respectively, the no significant effect threshold defined as 30% inhibition at 10 μg/mL at the time point indicated)”. For the same molecule, the “MTT Assay Cell viability … 24 h” value in the data set on d-U937 cells was “− (−ve and +ve indicate the value is below and above, respectively, the no significant effect threshold defined as 30% inhibition at 10 μg/mL at the time point indicated)”.
For the molecule `Cc1ccc(-n2nc(C(C)(C)C)cc2NC(=O)Nc2ccc(OCc3ccnc(Nc4cnc(C)c(C)n4)c3)c3ccccc23)cc1` [Example 4, 1-(3-(tert-Butyl)-1-(p-tolyl)-1H-pyrazol-5-yl)-3-(4-((2-((5,6-dimethylpyrazin-2-yl)amino)pyridin-4-yl)methoxy)naphthalen-1-yl)urea], the IC50 on p38MAPKγ (MAPK12) is 0.441 µM; at Hck it was 0.111 µM; against c-Src it was 0.447 µM; on Syk, greater than 16 µM; in data set [1], greater than 1.6 µM. Also, in the data set on d-U937 cells, the “MTT Assay Cell viability … in d-U937 Cells, 4 h” value was “− (−ve and +ve indicate the value is below and above, respectively, the no significant effect threshold defined as 30% inhibition at 10 μg/mL at the time point indicated)”. The “MTT Assay Cell viability … 24 h” value in the data set on d-U937 cells was “− (−ve and +ve indicate the value is below and above, respectively, the no significant effect threshold defined as 30% inhibition at 10 μg/mL at the time point indicated)”.
`Cc1ccc(-n2nc(C(C)(C)C)cc2NC(=O)Nc2ccc(OCc3ccnc(Nc4cnc(CN)cn4)c3)c3ccccc23)cc1` [Example 5, 1-(4-((2-((5-(Aminomethyl)pyrazin-2-yl)amino)pyridin-4-yl)methoxy)naphthalen-1-yl)-3-(3-(tert-butyl)-1-(p-tolyl)-1H-pyrazol-5-yl)urea]: the IC50 at p38MAPKγ (MAPK12) was 0.016 µM; at Hck it was less than 0.00048 µM; at c-Src, less than 0.00048 µM; against Syk it was greater than 15.9 µM; in data set [1] it was 0.474 µM. The “MTT Assay Cell viability … in d-U937 Cells, 4 h” value in the data set with d-U937 cells is “− (−ve and +ve indicate the value is below and above, respectively, the no significant effect threshold defined as 30% inhibition at 10 μg/mL at the time point indicated)”. Besides, the “MTT Assay Cell viability … 24 h” value with d-U937 cells is “+ (−ve and +ve indicate the value is below and above, respectively, the no significant effect threshold defined as 30% inhibition at 10 μg/mL at the time point indicated)”.
Turning to `CC(=O)NCc1cnc(Nc2cc(COc3ccc(NC(=O)Nc4cc(C(C)(C)C)nn4-c4ccc(C)cc4)c4ccccc34)ccn2)cn1` [Example 6, N-((5-((4-(((4-(3-(3-(tert-butyl)-1-(p-tolyl)-1H-pyrazol-5-yl)ureido)naphthalen-1-yl)oxy)methyl)pyridin-2-yl)amino)pyrazin-2-yl)methyl)acetamide], the IC50 turned out to be 0.037 µM on p38MAPKγ (MAPK12); 0.01 µM on Hck; 0.024 µM against c-Src; 7.52 µM at Syk; 0.0524 µM in data set [1]. In addition, the “MTT Assay Cell viability … in d-U937 Cells, 4 h” value in the data set on d-U937 cells was “− (−ve and +ve indicate the value is below and above, respectively, the no significant effect threshold defined as 30% inhibition at 10 μg/mL at the time point indicated)”. Moreover, in the data set on d-U937 cells, the “MTT Assay Cell viability … 24 h” value was “− (−ve and +ve indicate the value is below and above, respectively, the no significant effect threshold defined as 30% inhibition at 10 μg/mL at the time point indicated)”.
